# From article PMC4794209, “Preformulation Studies on Piperlongumine” (PLoS ONE, 2016)
# What was measured:
# Format in all cases: physicochemical
# [1] = Photo-stability (UV sunlamps, 165 min); conditions: for Photo-degradation: UV exposure
# Experimental: Photo-stability was examined by preparing four groups of samples, each containing a triplicate sample and one reference (protected from light). These groups covered high and low drug concentrations in the following compositions:
# • 150 μg/ml of drug in 100% acetonitrile • 150 μg/ml of drug in 15:85 acetonitrile: water • 30 μg/ml of drug in 100% acetonitrile • 30 μg/ml of drug in 15:85 acetonitrile: water
# Each sample was prepared in a transparent glass vial and closed without any entrapped air. A reference sample was utilized for each group by covering one of the vials with aluminum foil to protect it from the light exposure. All vials were exposed for 165 min using Sun 340 sunlamps yielding UV emission between 295 and 390 nm to include UVA and UVB wavelengths. Samples were placed in an area where the UV intensity was measured to be 1.57 mw/cm^2. After the exposure time, samples were analyzed using the HPLC method described previously.
# [2] = Aqueous stability studies (pH, temperature, ionic strength)
# Experimental: Aqueous stability studies for piperlongumine were conducted in three buffer systems: citrate (pH 3, 4, and 5); phosphate (pH 5, 6, and 7); and borate (pH 8 and 9). The ionic strength for the solutions was also varied, utilizing approximately 0.2 or 0.5 M. Each buffered sample was prepared with 10% acetonitrile as a cosolvent, then sealed and protected from light. Samples were stored at four different temperatures: 4°C (for samples at pH 3, 8 and 9 only), 26°C, 56°C and 67°C. Aliquots were regularly withdrawn for analysis. Changes in pH, if any, were also monitored. Stability studies were carried out for 18 months or until complete degradation occurred.
# Apparent first order degradation was also obtained for the 4, […] and 67°C degradation profiles. Degradation rate constants, k-values, for piperlongumine were calculated using the slopes of the trend lines of each profile.
# An Arrhenius plot of log k versus the reciprocal of the temperature (Fig 9) was utilized to determine the length of time it takes for piperlongumine to degrade 50% (T50) and 10% (T90). For a given pH the Arrhenius equation was utilized: Log k = log A − (Ea/2.303 RT) (1) Where: […]
# [3] = Additional stability studies with antioxidants, chelator, hydrogen peroxide
# Experimental: The addition of antioxidants such as ascorbic acid and sodium bisulfite and the chelator EDTA were evaluated with the drug at pH 3 (citrate buffer) and pH 7 (phosphate buffer). Samples in phosphate buffer were maintained at 26°C while the samples in citrate buffer were kept at 56°C. All three agents were used at a concentration of 0.05% w/v. Aliquots were withdrawn on a regular basis and pH and drug concentration were monitored. Piperlongumine stability was also examined after the addition of 1.5% w/v hydrogen peroxide in pH 3 citrate buffer at room temperature.
# [4] = pH 3, citrate, ionic strength 0.2, 25°C
# [5] = pH 3, citrate, ionic strength 0.5, 25°C
# [6] = pH 5, citrate, ionic strength 0.2, 25°C
# [7] = pH 5, phosphate, ionic strength 0.2, 25°C
# [8] = pH 5, phosphate, ionic strength 0.5, 25°C
# [9] = pH 6, phosphate, ionic strength 0.2, 25°C
# [10] = pH 7, phosphate, ionic strength 0.2, 25°C
# [11] = pH 8, borate, ionic strength 0.2, 25°C
# [12] = pH 9, borate, ionic strength 0.2, 25°C
# [13] = pH 9, borate, ionic strength 0.5, 25°C
# [14] = citrate, pH 3, 26°C, hydrogen peroxide 1.5% w/v
# [15] = citrate, pH 3, 56°C, EDTA 0.05% w/v
# [16] = citrate, pH 3, 56°C, ascorbic acid 0.05% w/v
# [17] = citrate, pH 3, 56°C, no additional substance
# [18] = citrate, pH 3, 56°C, sodium bisulfite 0.05% w/v
# [19] = phosphate, pH 7, 26°C, EDTA 0.05% w/v
# [20] = phosphate, pH 7, 26°C, ascorbic acid 0.05% w/v
# [21] = phosphate, pH 7, 26°C, no additional substance
# [22] = phosphate, pH 7, 26°C, sodium bisulfite 0.05% w/v
structure (smiles),measurement,setting,value
"COc1cc(/C=C/C(=O)N2CCC=CC2=O)cc(OC)c1OC [piperlongumine, 1-[(2E)-3-(3,4,5-trimethoxyphenyl)prop-2-enoyl]-1,2,5,6-tetrahydropyridin-2-one]",Average % of drug remaining ± SD,"[1]; 30 μg/ml, acetonitrile:water 15:85, UV 165 min",79.0 ± 0.1%
same,Average % of drug remaining ± SD,"[1]; 30 μg/ml, acetonitrile:water 100:00, UV 165 min",39.5 ± 0.03%
same,Average % of drug remaining ± SD,"[1]; 150 μg/ml, acetonitrile:water 15:85, UV 165 min",82.3 ± 0.6%
same,Average % of drug remaining ± SD,"[1]; 150 μg/ml, acetonitrile:water 100:00, UV 165 min",44.5 ± 0.2%
same,Photo-degradation,[1]; 15:85 acetonitrile: water,approximately 20%
same,Concentration remaining of the initial concentration,"[1]; light protected control samples, after exposure duration",100%
same,Photo-degradation,[1]; pure acetonitrile,60%
same,Photo-degradation upon exposure to an ultraviolet light source,[1]; qualitative,marked photo-degradation
same,Effect of ionic strength on degradation rate,"[2]; 0.2 M vs 0.5 M, pH 9, borate buffer",No difference in degradation rate
same,Kinetics of thermal degradation,"[2]; 56°C, several pH conditions",first order degradation kinetics
same,Effect of buffer species on degradation rate,"[2]; citrate vs phosphate, pH 5",degradation rates are similar
same,Effect of ionic strength on stability half-life,"[2]; increase from approximately 0.2 M to 0.5 M, pH 3 and pH 5",nominal effects
same,Ea,"[2]; pH 3, citrate, ionic strength 0.2",21.2 kcal/mol
same,T50 at 25°C,[2]; [4],69.6 weeks
same,T90 at 25°C,[2]; [4],10.6 weeks
same,k values 26°C,"[2]; pH 3, citrate, ionic strength 0.2, 26°C",0.0110 weeks^-1
same,k values 56°C,"[2]; pH 3, citrate, ionic strength 0.2, 56°C",0.3057 weeks^-1
same,k values 67°C,"[2]; pH 3, citrate, ionic strength 0.2, 67°C",0.7808 weeks^-1
same,Ea,"[2]; pH 3, citrate, ionic strength 0.5",22.1 kcal/mol
same,T50 at 25°C,[2]; [5],75.4 weeks
same,T90 at 25°C,[2]; [5],11.5 weeks
same,k values 26°C,"[2]; pH 3, citrate, ionic strength 0.5, 26°C",0.0101 weeks^-1
same,k values 56°C,"[2]; pH 3, citrate, ionic strength 0.5, 56°C",0.3413 weeks^-1
same,k values 67°C,"[2]; pH 3, citrate, ionic strength 0.5, 67°C",0.8383 weeks^-1
same,T90 without hydrogen peroxide,"[2]; pH 3 citrate, 26°C, from Table 1",about 9.5 weeks
same,Ea,"[2]; pH 4, citrate, ionic strength 0.2",20.3 kcal/mol
same,T50 at 25°C,"[2]; pH 4, citrate, ionic strength 0.2, 25°C",112.9 weeks
same,k values 26°C,"[2]; pH 4, citrate, ionic strength 0.2, 26°C",0.0067 weeks^-1
same,k values 56°C,"[2]; pH 4, citrate, ionic strength 0.2, 56°C",0.1739 weeks^-1
same,k values 67°C,"[2]; pH 4, citrate, ionic strength 0.2, 67°C",0.3813 weeks^-1
same,Ea,"[2]; pH 5, citrate, ionic strength 0.2",20.7 kcal/mol
same,T50 at 25°C,[2]; [6],87.6 weeks
same,T90 at 25°C,[2]; [6],13.3 weeks
same,k values 26°C,"[2]; pH 5, citrate, ionic strength 0.2, 26°C",0.0090 weeks^-1
same,k values 56°C,"[2]; pH 5, citrate, ionic strength 0.2, 56°C",0.2045 weeks^-1
same,k values 67°C,"[2]; pH 5, citrate, ionic strength 0.2, 67°C",0.6125 weeks^-1
same,Ea,"[2]; pH 5, phosphate, ionic strength 0.2",21.5 kcal/mol
same,T50 at 25°C,[2]; [7],101.5 weeks
same,T90 at 25°C,[2]; [7],15.4 weeks
same,k values 26°C,"[2]; pH 5, phosphate, ionic strength 0.2, 26°C",0.0076 weeks^-1
same,k values 56°C,"[2]; pH 5, phosphate, ionic strength 0.2, 56°C",0.2201 weeks^-1
same,k values 67°C,"[2]; pH 5, phosphate, ionic strength 0.2, 67°C",0.5741 weeks^-1
same,Ea,"[2]; pH 5, phosphate, ionic strength 0.5",20.3 kcal/mol
same,T50 at 25°C,[2]; [8],88.7 weeks
same,T90 at 25°C,[2]; [8],13.5 weeks
same,k values 26°C,"[2]; pH 5, phosphate, ionic strength 0.5, 26°C",0.0090 weeks^-1
same,k values 56°C,"[2]; pH 5, phosphate, ionic strength 0.5, 56°C",0.1764 weeks^-1
same,k values 67°C,"[2]; pH 5, phosphate, ionic strength 0.5, 67°C",0.5741 weeks^-1
same,Ea,"[2]; pH 6, phosphate, ionic strength 0.2",22.7 kcal/mol
same,T50 at 25°C,[2]; [9],75.5 weeks
same,T90 at 25°C,[2]; [9],11.5 weeks
same,k values 26°C,"[2]; pH 6, phosphate, ionic strength 0.2, 26°C",0.0108 weeks^-1
same,k values 56°C,"[2]; pH 6, phosphate, ionic strength 0.2, 56°C",0.2919 weeks^-1
same,k values 67°C,"[2]; pH 6, phosphate, ionic strength 0.2, 67°C",1.1652 weeks^-1
same,Ea,"[2]; pH 7, phosphate, ionic strength 0.2",22.5 kcal/mol
same,T50 at 25°C,[2]; [10],16.0 weeks
same,T90 at 25°C,[2]; [10],2.4 weeks
same,k values 26°C,"[2]; pH 7, phosphate, ionic strength 0.2, 26°C",0.0506 weeks^-1
same,k values 56°C,"[2]; pH 7, phosphate, ionic strength 0.2, 56°C",1.3607 weeks^-1
same,k values 67°C,"[2]; pH 7, phosphate, ionic strength 0.2, 67°C",5.1370 weeks^-1
same,Ea,"[2]; pH 8, borate, ionic strength 0.2",19.8 kcal/mol
same,k values 4°C,"[2]; pH 8, borate, ionic strength 0.2, 4°C",0.0232 weeks^-1
same,T50 at 25°C,[2]; [11],2.0 weeks
same,T90 at 25°C,[2]; [11],0.3 weeks
same,k values 26°C,"[2]; pH 8, borate, ionic strength 0.2, 26°C",0.5120 weeks^-1
same,k values 56°C,"[2]; pH 8, borate, ionic strength 0.2, 56°C",7.2924 weeks^-1
same,k values 67°C,"[2]; pH 8, borate, ionic strength 0.2, 67°C",20.933 weeks^-1
same,Ea,"[2]; pH 9, borate, ionic strength 0.2",22.7 kcal/mol
same,k values 4°C,"[2]; pH 9, borate, ionic strength 0.2, 4°C",0.1182 weeks^-1
same,T50 at 25°C,[2]; [12],0.3 weeks
same,T90 at 25°C,[2]; [12],0.05 weeks
same,k values 26°C,"[2]; pH 9, borate, ionic strength 0.2, 26°C",2.4375 weeks^-1
same,Ea,"[2]; pH 9, borate, ionic strength 0.5",22.7 kcal/mol
same,k values 4°C,"[2]; pH 9, borate, ionic strength 0.5, 4°C",0.1171 weeks^-1
same,T50 at 25°C,[2]; [13],0.3 weeks
same,T90 at 25°C,[2]; [13],0.05 weeks
same,k values 26°C,"[2]; pH 9, borate, ionic strength 0.5, 26°C",2.4372 weeks^-1
same,pH of maximum stability,"[2]; pH degradation rate profile, 26, 56, 67°C",~4
same,Stability in pH degradation rate profile,"[2]; pH values ≥ 7 and 3, various temperatures",significant instability
same,Major degradation products,"[2]; stability samples at pH 3, 5 and 8, LC-MS","3,4,5- trimethoxycinnamic acid and piperlongumic acid"
same,Effect on the stability profile,"[3]; addition of ascorbic acid and EDTA, pH 7 phosphate buffer, vs drug alone",did not have a significant effect
same,Effect on degradation,"[3]; addition of ascorbic acid, pH 3",did not readily affect the degradation
same,Effect on degradation,[3]; addition of hydrogen peroxide (oxidizing agent),does significantly increase degradation
same,Effect on degradation rate,"[3]; addition of sodium bisulfite, pH 3 citrate buffer, 56°C, vs drug alone",did not affect the degradation rate
same,Time of degradation,"[3]; addition of sodium bisulfite, pH 7",within a few minutes
same,T90,[3]; [14],0.3 weeks
same,k values,[3]; [14],0.3369 weeks^-1
same,T90,[3]; [15],0.3 weeks
same,k values,[3]; [15],0.3266 weeks^-1
same,T90,[3]; [16],0.3 weeks
same,k values,[3]; [16],0.3706 weeks^-1
same,T90,[3]; [17],0.3 weeks
same,k values,[3]; [17],0.3107 weeks^-1
same,T90,[3]; [18],0.3 weeks
same,k values,[3]; [18],0.3860 weeks^-1
same,T90,[3]; [19],1.9 weeks
same,k values,[3]; [19],0.0559 weeks^-1
same,T90,[3]; [20],2.3 weeks
same,k values,[3]; [20],0.0459 weeks^-1
same,T90,[3]; [21],2.1 weeks
same,k values,[3]; [21],0.0494 weeks^-1
same,T90,[3]; [22],0.0 weeks
same,k values,[3]; [22],3069.8950 weeks^-1
